Assays:
[1] = Anti-oxidant activity; assay type: biochemical; conditions: parent compound = carnosine
[2] = tested on: MRC-5 cells; experiment: Effect of carnosine derivatives on cell growth / toxicity in MRC-5 cell cultures; assay type: cell-based, human; design: key to Effect on cell growth (score): (0) Toxic to cell growth; (10) Confluent cell growth; conditions: MRC-5 cells, scale 0 toxic to 10 confluent
Description: (§1) MRC -5 cells (fetal lung fibroblasts) were grown in Dulbecco's modification of Eagles' minimum essential medium (DMEM Gibco BRL Cat. No. 12800-017) containing 0.45% glucose, or MEM (Gibco BRL Cat. No. 612800-017) containing 0.1% glucose. Both media contained 10% fetal calf scrum (TRACE Biosciences Cat. No. 15-010-0500V) and Penicillin/Streptomycin 5000 IU, 5000 μg/ml (TRACE Biosciences Cat. No. 21-140-0100V). Cells were grown in […] flasks or in dishes (35 mm or 60 mm, Nunc) at 37° C. with 5% CO2. Cells were harvested with trypsin (TRACE Biosciences Cat. No. 21-163-0100V) and counted with a model ZF6 Coulter Counter. Cells were split in ratios of 1:2 or 1:4. Population doublings (PDs) were calculated from the ratio of the initial number of cells plated to the yield of cells after a period of time. This provides an accurate measure of cell growth, with the split ratios 1:2 and 1:4 corresponding to one and two passages respectively, which are broadly equivalent to population doublings. The media was changed every 5 days or when cells became confluent.
MRC-5 cells were used to observe the toxicity of a series of derivatives of carnosine on cell growth. Cell cultures were grown in DMEM media with 10% fetal calf serum and supplemented with the following carnosine analogues: carnosine ethyl ester, carnosine iso-propyl ester, carnosine n-butyl ester, carnosine n-hexyl ester, N-propyl carnosine, N-hexanoyl carnosine, N-trimethyl acetyl carnosine, N-acetyl carnosine methyl ester, N-acetyl carnosine ethyl ester and N-acetyl carnosine, […] Cells were also grown in DMEM supplemented with carnosine at 20 mM. […] Even at lower concentrations cell morphology was that of cells that have reached senescence i.e. broad flat cells with long process reaching out to other cells. Cell numbers were less than in the control flasks. […] As shown in FIG. 1 Acetyl-carnosine achieved a lifespan 5 PDs greater than the control and 6.7 PDs greater than carnosine over a 43 day period. […] In the early phase of the experiment growth rates were markedly greater than with the other compounds (FIG. 1).

[3] = tested on: non-enzymic glycation; experiment: Anti-glycation activity; assay type: biochemical
[4] = tested on: MRC-5 cells; experiment: Uptake of radio-labeled (3H) compounds by MRC-5 fibroblast cells; conditions: after 48 hours
Description: For MRC-5 cells, (3H)—carnosine and acetyl carnosine were added to the medium of near confluent 60mm culture dishes. At different time points cells were washed three times with phosphate buffered saline, cells harvested and cell-associated radioactivity determined using Packard Starscint scintillation fluid.
The rate of uptake of carnosine and acetyl-carnosine by MRC-5 cells was studied using radio-labeled tritiated (3H) carnosine and acetyl-carnosine compounds. The uptake was measured in MRC-5 cells at passage 28 over a 48 hour period (FIG. 3A).

[5] = tested on: non-enzymic glycation; design: key: 0 = zero effect; 10 = maximum effect; conditions: summary grade; footnote (2) literature; cited from earlier work
[6] = tested on: human blood peptidases; experiment: Stability in human blood serum / attack by human blood peptidases; assay type: in vitro ADME
[7] = tested on: senescent MRC-5 cells; experiment: Rejuvenation of senescent MRC-5 cells (morphology); assay type: cell-based, human; conditions: media supplemented with the compound, FIG. 4
Description: as §1
It was shown above that acetyl-carnosine markedly delayed the onset of senescence by increasing the lifespan of MRC-5 cells in culture. This was confirmed by rejuvenation experiments (FIG. 4). The morphology of cells grown in media supplemented with acetyl-carnosine was distinct from the controls. […]

[8] = Fate of compound after cellular uptake; assay type: cell-based; conditions: compared with carnosine
Description: Experiments were conducted to determine the fate of acetyl-carnosine and carnosine after cellular uptake. […] A slower metabolism and incorporation into other proteins may be one reason for acetyl-carnosine having higher effective intracellular concentrations compared with carnosine despite its lower overall uptake.

[9] = tested on: MRC-5 cells; experiment: Lifespan (population doublings) of MRC-5 cells in culture; assay type: cell-based, human
Description: Cultures were split in a 1:4 ratio when flasks were approximately 70-80% confluent.
as §1
MRC-5 cells were used to observe the toxicity of a series of derivatives of carnosine on cell growth. Cell cultures were grown in DMEM media with 10% fetal calf serum and supplemented with the following carnosine analogues: carnosine ethyl ester, carnosine iso-propyl ester, carnosine n-butyl ester, carnosine n-hexyl ester, N-propyl carnosine, N-hexanoyl carnosine, N-trimethyl acetyl carnosine, N-acetyl carnosine methyl ester, N-acetyl carnosine ethyl ester and N-acetyl carnosine, at concentrations ranging between 1 mM to 20 mM. Cells were also grown in DMEM supplemented with carnosine at 20 mM. […] Even at lower concentrations cell morphology was that of cells that have reached senescence i.e. broad flat cells with long process reaching out to other cells. Cell numbers were less than in the control flasks. […] As shown in FIG. 1 Acetyl-carnosine achieved a lifespan 5 PDs greater than the control and 6.7 PDs greater than carnosine over a 43 day period. […] In the early phase of the experiment growth rates were markedly greater than with the other compounds (FIG. 1).
In fact all populations of MRC-5 cells grown in DMEM supplemented with acetyl-carnosine preserved a younger phenotype for much longer than cells grown in DMEM supplemented with carnosine or its analogues.
Under control conditions the range was 57.3-64.5 PDs (n=5). With the addition of carnosine (20mM) to the medium the range was 61.8-63.7 PDs (n=5) with an average increase of 1.4 PDs which represents a 3 fold increase in cell number. However, when acetyl-carnosine (5 mM) was added to the medium, the range was 62.3-70.3 PDs (n=5) with an average increase of 5 PDs compared with the controls. This represents a 32 fold increase in cell number.

CC(=O)NCCC(=O)N[C@@H](Cc1cnc[nH]1)C(=O)O [N-acetyl carnosine]
Antioxidant effectiveness relative to the parent compound [1]: 60%
Effect on cell growth (score) ([2]; 0.5 mM): 7
Effect on cell growth (score) ([2]; 1 mM): 8
Effect on cell growth (score) ([2]; 2 mM): 9
Effect on cell growth (score) ([2]; 5 mM): 10
Effect on cell growth (score) ([2]; 10 mM): 9
Effect on cell growth (score) ([2]; 20 mM): 8
Effectiveness as an antiglycation agent [3]: ineffective
Number of cells greater than with carnosine ([4]; MRC-5 cells): 42%
Number of cells growing in supplemented media ([4]; MRC-5 cells): 3.4×10^6
Uptake relative to carnosine on a per cell basis ([4]; MRC-5 cells): 35%
Uptake of (3H) compound by MRC-5 cells ([4]; cells at passage 28): 0.16%
anti-glycation (2) [5]: 0
Resistance to attack by human blood peptidases [6]: almost completely resistant
Stability in human blood serum ([6]; human blood serum): quite stable
Morphology of cells in rejuvenation experiment [7]: phenotype typical of younger cells
Residence time in the cell before degradation [8]: considerably longer residence time
Range of lifespans of populations of MRC-5 cells ([9]; 5 mM in medium, n=5): 62.3-70.3 PDs
Lifespan greater than carnosine ([9]; 5 mM vs carnosine 20 mM, passage 55 cells, over a 43 day period): 6.7 PDs
Lifespan of MRC-5 cells in culture, Population Doublings (PD) ([9]; 5 mM, commenced at passage 55): 15.2 PD
Average increase in lifespan compared with controls ([9]; 5 mM, n=5): 5 PDs
Lifespan greater than the control ([9]; 5 mM, passage 55 cells, over a 43 day period): 5 PDs
Increase in cell number ([9]; 5 mM, worked out from the PD increase): 32 fold
Lifespan of MRC-5 cells compared with carnosine (FIG. 2) ([9]; acetyl-carnosine 5 mM vs carnosine 20 mM, commenced at passage 32): markedly increased the lifespan
Increase in cell mass ([9]; cells exposed to supplemented media): 32 fold

From patent US20040014814A1, “Compositions and methods for delaying preventing rejuvenating or reversing senescence in cells” (priority 2000, published 2004)
